# Entries after “also recorded” stand apart in the source; their conditions may differ.
# How the values were obtained:
# residual FV-LSCs = assay: Secondary transplants from treated FV-LSC mice into BALB/c-Stk−/− recipients; assay type: in vivo, mouse; details: donor cells from treated FV-LSC transplanted mice
# Method: (§1) Secondary transplants to test for residual LSCs after treatment with Δ^12-PGJ3: For the CML model, B6.SJLPtprca Pep3b/BoyJ (CD45.1^+) mice were treated with 5-FU and bone marrow cells enriched in cycling HSCs were isolated followed by infection with MIGR-BCR-ABL virus or control MSCV-GFP virus as described above. The cells were transplanted into C57BL/6 (CD45.2) recipient mice as mentioned earlier. The mice were treated with Δ^12-PGJ3 or vehicle control as indicated. Two weeks after treatment, spleen cells were isolated and transplanted into irradiated secondary C57BL/6 (CD45.2) recipients as described above. Two weeks after secondary transplant, mice were analyzed for WBC counts, splenomegaly and the presence of GFP^+ or CD45.1 donor cells in the bone marrow and spleen by flow cytometry. Secondary transplants were also done with FV infected mice treated with Δ^12-PGJ3 or vehicle control. BALB/c mice were infected with Friend virus as described above. The mice were treated with Δ^12-PGJ3 or vehicle control as indicated. Two weeks after treatment, spleen cells isolated from FV-infected mice and transplanted into BALB/c-Stk^−/− recipient mice (1×10^5 cells per mouse). Five weeks post transplant, the mice with secondary transplants were tested for WBC counts, splenomegaly and for the presence of M34^+Kit^+Sca1^+FV-LSCs by flow cytometry.
# p53 [1] = assay: p53 expression in BCR-ABL+ LSCs treated ex vivo; assay type: cell-based, mouse; details: 25 nM ex vivo
# residual BCR-ABL LSCs = assay: Secondary transplants from treated BCR-ABL mice (residual LSCs); assay type: in vivo, mouse
# Method: as §1
# [2] = tested on: BCR-ABL^+LSC (Kit^+Sca1^+Lin^−GFP^+); assay: Apoptosis of BCR-ABL+ LSCs treated ex vivo (annexin V, flow cytometry); assay type: cell-based, mouse
# Method: Apoptosis. Apoptosis of LSCs was performed using annexin V as described below in Supplementary Information and Methods.
# Apoptosis. The LSCs were diluted in DMEM, resuspended using a 16-gauge needle, and collected by centrifugation. 1×10^5 cells were resuspended in 200 μl of binding buffer (0.1 M HEPES with 1.4 M NaCl, 25 mM CaCl2, pH 7.4). Annexin V FITC (BD Biosciences) was incubated with cells for 15 min on ice followed by flow cytometric analysis.
# The ability of CyPGs derived from arachidonic acid (2 series PGs) to induce apoptosis was tested in cultures of LSCs from FV infected mice and in the murine CML model. […] 15d-PGJ2 is known as a PPAPγ agonist. […] In FIG. 7C Δ^12-PGJ3, 15d-PGJ2 or 9,10-dihydro-15d-PGJ2 are tested for their ability to induce apoptosis in a murine CML model. […] The cells were stained with annexin V-FITC and analyzed by flow cytometry. Representative of N=4. […] Inset: Effect of rosiglitazone on the apoptosis of LSC. Rosiglitazone (0.1-2.0 μM) was incubated with LSC in the culture media for 36 h as described earlier and the cells were subjected to annexin-V staining followed by flow cytometry. […] LSC were treated ex vivo with indicated concentrations of each compound for 36 h.
# Following 36 h of incubation, apoptotic cells were quantified by annexin V staining. […] In a related study to address if Δ^12-PGJ3 treatment would cause any degranulation of granulocytes, a rat basophilic cell line ([…]) was treated with 100 nM Δ^12-PGJ3 and the degranulation was followed by quantitating the release of histamine and a second marker of degranulation, hexoseaminidase.
# In this experiment, 500,000 BCR-ABL+ LSCs were plated in a 24-well plate followed and were treated with 25 nM PGD2Me or 100 nM ZK118182 (both are agonists of DP) for 24 h. GFP^+ cells were analyzed by flow cytometry. These agonists were purchased from Cayman Chemicals, MI.
# NF-κB = NF-κB gel shift in LPS-treated RAW264.7 macrophages; assay type: cell-based, mouse; details: 0.25 or 1.0 μM, then LPS 100 ng/mL 4 h
# Method: The effect of Δ^12-PGJ3 on NF-κB and PPAPγ was examined. RAW264.7 macrophages were pretreated with DMSO, Δ^12-PGJ3 at 0.25, or 1.0 μM and subsequently stimulated with 100 ng/mL E. coli LPS for 4 h. The nuclear extracts were prepared and the binding of NΦκB to a ^32P-labeled consensus double stranded oligonucleotide probe was examined using gel shift analysis. NS=non-specific band. Lanes 1-5 represent untreated, LPS alone, DMSO+LPS, Δ^12-PGJ3 (0.25 μM)+LPS, and Δ^12-PGJ3 (1 μM)+LPS, respectively. BCR-ABL LSCs were sorted from spleens, plated, and treated with PBS, 25 nM Δ^12-PGJ3, or 9,10-dihydro 15d-PGJ2 for 0, 2 or 6 h. The cells were harvested and nuclear extracts were prepared using standard techniques. Ten μg of nuclear protein was used from each sample for the gel-shift reaction. As a positive control for NF-κB, nuclear extract from LPS-treated murine (RAW264.7) macrophages was used. Anti-p50 Ab was used with this positive control for a supershift, and excess ‘cold’ probe was used with the positive control as a ‘cold competitor’. A Western blot analysis was performed of the above-mentioned nuclear extracts from BCR-ABL LSCs treated with PBS, Δ^12-PGJ3 or 9,10-dihydro-15d-PGJ2 for various time periods (0-6 h) probed with anti-p65 and anti-β-actin antibodies. […]
# LSCs = assay: Apoptosis of LSCs as summarised in the discussion (model not specified or both models); assay type: cell-based, mouse
# Survivin = Survivin expression in human AML sample (RT-PCR); assay type: cell-based; details: 6 h
# Method: Survivin expression in the human AML sample post Δ^12-PGJ3 treatments was examined. Total RNA was isolated from AML cells with indicated treatments (for 6 h) using Trizol (Invitrogen) cDNA was generated using Superscript II (Invitrogen) and cDNA were quantified by RT-PCR using SYBR green PCR master mix and primers that amplify a 76 nt PCR product. A Taqman probe for GAPDH (Applied biosystems) was used.
# p53 [3] = assay: p53 expression in FV-LSCs treated ex vivo (RT-PCR, nuclear extracts); assay type: cell-based, mouse; details: 12 h
# [4] = tested on: FV-LSCs transplanted into BALB/c-Stk^−/− mice
# Method: Transplant of FV-LSCs into BALB/c-Stk^−/− mice: FV-LSCs were generated as described above. 2.5×10^5 FV-LSCs were transplanted into BALB/c-Stk^−/− mice by retro-orbital injection. Six weeks after transplant the mice were treated with CyPGs or vehicle control as indicated in the text.
# Treatment of Mice with PGs: Mice with FV-induced erythroleukemia or MIGR-BCR-ABL induced CML were treated on the indicated days with CyPGs. Mice were treated with a daily intraperitoneal injection of Δ^12-PGJ3 (0.01-0.1 mg/kg), 15d-PGJ2 (0.1 mg/kg), or 9,10-dihydro-15d-PGJ2 (0.1 mg/kg) for 7 days. All three compounds were formulated with hydroxypropyl-β-cyclodextrin (30% w/v; Sigma; vehicle control).
# Stk^−/− mice are resistant to Friend virus infection so the leukemia developed by the transplanted mice is result of the transplanted LSCs and not FV infection. […] LSCs sorted from the spleens of FV-infected mice were transplanted into Stk^−/− mice (on a Balb/c background). After 6 weeks such mice were treated daily for 1 week with vehicle (hydroxypropyl-β-cyclodextrin), 15d-PGJ2 (0.05 mg/kg), or 9,10-dihydro-15d-PGJ2 (0.05 mg/kg) by intraperitoneal injection. The mice were sacrificed 51 days post LSC transplantation for analysis. An analysis of spleens of mice comparing splenomegaly in vehicle, 15d-PGJ2, or 9,10-dihydro-15d-PGJ2 treated transplanted mice was performed. Spleen weight compared to control (untransplanted mice) after treatment and WBC counts in the peripheral blood of the mice after treatment were examined, and a flow cytometric analysis of the spleen of untransplanted and LSC transplanted mice after treatment was performed. All data were mean±s.e.m. *p<0.05 compared to control or 9,10-dihydro-15d-PGJ2 treated groups. N=5 per group.
compound,measurement,setting,value
"CC/C=C\C[C@H](O)C/C=C1/C(=O)C=C[C@@H]1C/C=C\CCCC(=O)O [Δ^12-PGJ3, Δ^12-prostaglandin J3]","splenomegaly, WBC counts and LSCs in secondary recipients",residual FV-LSCs,failed to develop splenomegaly or high WBC counts and lacked LSCs in their spleens
same,p53 mRNA,p53 [1],increase in p53 transcription
same,Kit+Sca1+GFP+ LSCs in spleen of secondary recipients,residual BCR-ABL LSCs; donor cells from treated mice,lacked Kit^+Sca1^+GFP^+ cells
same,splenomegaly and WBC counts in secondary recipients,"residual BCR-ABL LSCs; donor spleen cells from treated mice, two weeks after secondary transplant",failed to develop splenomegaly or high WBC counts
same,apoptosis of BCR-ABL+LSCs,"[2]; 25 nM, annexin V, caspase 3 and caspase 8 activation",significant increase in apoptosis; also recorded: highly susceptible to apoptosis
same,apoptosis of Sca1+GFP+Kit+ BCR-ABL+LSC from spleen,"[2]; 25-1000 nM, 36 h",significantly increased their apoptosis
same,IC50,"[2]; Kit+Sca1+Lin−GFP+ LSCs from spleen of BCR-ABL mice, ex vivo 36 h, annexin V",~12 nM
same,"NF-κB pathway, gel shift",NF-κB,did not affect the NF-κB pathway
same,targeting of LSCs for apoptosis,LSCs; FV-induced leukemia and BCR-ABL+ retrovirus-based murine CML model,targeted LSCs for apoptosis
same,IC50,"LSCs; LSC type not specified, read-out: IC50, concentration required to cause apoptosis of LSCs",7 nM
same,survivin expression,Survivin,decreases the expression of survivin
same,p53 expression at transcript level,p53 [3]; 10 or 25 nM,significant upregulation of p53 expression
same,nuclear levels of p53 protein,p53 [3]; sorted LSC,increase in the nuclear levels of p53 protein
same,leukocyte counts,"[4]; 0.025 mg/kg and 0.05 mg/kg, 1 week",concomitant decrease in leukocyte counts
same,"hematocrit, WBC counts and reticulocyte counts","[4]; FV-induced leukemia, FIG. 3C",significantly decreased
same,LSCs (M34+Sca1+Kit+) in the spleen,[4]; flow cytometry after 1 week i.p. treatment,complete ablation
same,hematological parameters (complete blood counts) versus untransplanted control mice,"[4]; mouse, in vivo",does not adversely affect hematological parameters
same,pChk2 levels in total spleen extracts,"[4]; mouse, in vivo",increase in the levels of pChk2
same,splenomegaly,"[4]; Δ^12-PGJ3 0.025 and 0.05 mg/kg, comparators 0.05 mg/kg, i.p. 1 week",significantly decreased splenomegaly

# Source: patent publication US9623031B2, “Compositions, methods and kits for treating cancer” (priority 2011, dated 2017)
